Assay results reported in US8188098B2, “GPR119 receptor agonists” (Hoffmann-La Roche Inc., priority 2008, dated 2012).
Structures can show the parent of a compound that is named as a salt.

Molecular target: T1, GPR119 receptor (Mesocricetus auratus, UniProt A0A1U8CD06)
T1 construct: which endogenously express the GPR119 receptor; host or cells: HIT-T15 hamster pancreatic islet cells
T1 sequence (A0A1U8CD06 1-334): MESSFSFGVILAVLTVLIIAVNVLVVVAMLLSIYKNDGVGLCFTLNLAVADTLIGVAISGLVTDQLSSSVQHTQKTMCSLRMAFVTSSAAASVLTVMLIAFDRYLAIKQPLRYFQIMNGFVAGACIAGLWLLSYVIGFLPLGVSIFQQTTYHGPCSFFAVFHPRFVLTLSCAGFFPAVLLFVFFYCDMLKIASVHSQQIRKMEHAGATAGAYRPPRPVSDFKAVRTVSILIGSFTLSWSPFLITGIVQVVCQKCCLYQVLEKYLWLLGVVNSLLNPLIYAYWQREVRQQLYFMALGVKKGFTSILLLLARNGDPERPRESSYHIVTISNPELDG
Assay: cAMP assay in HIT-T15 hamster pancreatic islet cells (functional agonist activity)
Assay type: cell-based
Details: HIT-T15 cells endogenously expressing GPR119; 30 min at 25° C.; intracellular cAMP
Method: The functional agonist activities of compounds of the invention were characterized using a cAMP assay in HIT-T15 hamster pancreatic islet cells (American Type Culture Collection, Manassas, Va., USA) which endogenously express the GPR119 receptor. The cells were cultured in Kaighn's modification of Ham's F12 medium (Invitrogen Corporation, Carlsbad, Calif., USA) containing 10% horse serum, 2.5% FBS, and 1% Pen/Strep and grown in 225 cm^2 tissue culture flasks until they reached 75-85% confluence.
The cells were harvested 24 h prior to assay with 5 ml Versene®, washed with Kaighn/F12 medium and then plated into white 384-well plates (9000 cells/well) containing Kaighn/F12 medium. Prior to assay, the culture medium was replaced with a Kaighn/F12 medium without phenol red (50 μL/well) containing 0.5 mM 3-isobutyl-1-methylxanthine, 0.5 mg/ml BSA. The cells were incubated in the dark for 30 min at 25° C. in the absence or presence of varying concentrations of agonist (1 μL, 100% DMSO). The incubation media was discarded and replaced with the assay lysis buffer (50 μL/well) provided in the Tropix cAMP-Screen® kit (Applied Biosystems, Foster City, Calif., USA) and the plates incubated for 45 min at 37° C. The intracellular levels of cAMP generated in the HIT-T 15 cells were measured using the Tropix kit. In brief, 20 μL of the lysate was transferred into pre-coated antibody plates (384-well; Tropix kit) along with 10 μL of alkaline phosphatase conjugate and 20 μL of anti-cAMP antibody and the plates were incubated for 1 h at room temperature while shaking. The plates were then washed 5 times with wash buffer (70 μL) and tapped dry. CSPD®/Sapphire-II™ RTU substrate/enhancer solution (Applied Biosystems, Foster City, Calif., USA; 30 μL) was added and the plates were incubated for 45 min at room temperature while shaking. The signal generated was measured using a Wallac Victor V Luminometer (PerkinElmer Life And Analytical Sciences, Inc., Waltham, Mass., USA; 1 sec/well). EC50 values were calculated using the XLFit program (ID Business Solutions Ltd., Guildford, Surrey, UK).

Row | Compound | EC50
1 | CC(C)(C)C(=O)N1CCC(n2ncc3c(Oc4cc(F)c(F)cc4F)ncnc32)CC1 [Example 137, 2,2-Dimethyl-1-{4-[4-(2,4,5-trifluoro-phenoxy)-pyrazolo[3,4-d]pyrimidin-1-yl]-piperidin-1-yl}-propan-1-one] | 1.6 µM
2 | Cc1nnnn1-c1ccc(Oc2ncnc3c2cnn3[C@H]2CC[C@H](c3nc(C(C)C)no3)CC2)cc1 [Example 133, 1-[4-(3-Isopropyl-[1,2,4]oxadiazol-5-yl)-trans-cyclohexyl]-4-[4-(5-methyl-tetrazol-1-yl)phenoxy]-1H-pyrazolo[3,4-d]pyrimidine] | 3.34 µM
3 | CS(=O)(=O)c1ccc(Oc2ncnc3c2cnn3C2CCN(C(=O)OC3CCCC3)CC2)c(F)c1 [Example 120, 4-[4-(2-Fluoro-4-methanesulfonyl-phenoxy)-pyrazolo[3,4-d]pyrimidin-1-yl]-piperidine-1-carboxylic acid cyclopentyl ester] | 0.031 µM
4 | CC(C)CC(=O)N1CCC(n2ncc3c(Oc4ccc(S(C)(=O)=O)cc4)ncnc32)CC1 [Example 142, 1-{4-[4-(4-Methanesulfonyl-phenoxy)-pyrazolo[3,4-d]pyrimidin-1-yl]-piperidin-1-yl}-3-methyl-butan-1-one] | 0.33 µM
5 | CC(C)(C)OC(=O)N1CCC(n2ncc3c(Oc4cccc5ncccc45)ncnc32)CC1 [Example 71, 4-[4-(Quinolin-5-yloxy)-pyrazolo[3,4-d]pyrimidin-1-yl]-piperidine-1-carboxylic acid tert-butyl ester] | 0.75 µM
6 | CC(C)(C)OC(=O)N1CCC(n2ncc3c(Oc4ccc5ccc(=O)oc5c4)ncnc32)CC1 [Example 75, 4-[4-(2-Oxo-2H-chromen-7-yloxy)-pyrazolo[3,4-d]pyrimidin-1-yl]-piperidine-1-carboxylic acid tert-butyl ester] | 1.8 µM
7 | CCOc1ccc(Oc2ncnc3c2cnn3C2CCN(C(=O)OC(C)(C)C)CC2)c(F)c1 [Example 43, 4-[4-(4-Ethoxy-2-fluoro-phenoxy)-pyrazolo[3,4-d]pyrimidin-1-yl]-piperidine-1-carboxylic acid tert-butyl ester] | 0.018 µM
8 | CS(=O)(=O)c1ccc(Oc2ncnc3c2cnn3C2CCN(C(=O)OC(CF)CF)CC2)cc1 [Example 109, 4-[4-(4-Methanesulfonyl-phenoxy)-pyrazolo[3,4-d]pyrimidin-1-yl]-piperidine-1-carboxylic acid 2-fluoro-1-fluoromethyl-ethyl ester] | 0.68 µM
9 | CC(C)(C)OC(=O)N1CCC(n2ncc3c(Oc4ccc(Cl)c(C(F)(F)F)c4)ncnc32)CC1 [Example 55, 4-[4-(4-Chloro-3-trifluoromethyl-phenoxy)-pyrazolo[3,4-d]pyrimidin-1-yl]-piperidine-1-carboxylic acid tert-butyl ester] | 0.15 µM
10 | Cc1ncccc1Oc1ncnc2c1cnn2C1CCN(C(=O)OCc2ccccc2)CC1 [Example 124, 4-[4-(2-Methyl-pyridin-3-yloxy)-pyrazolo[3,4-d]pyrimidin-1-yl]-piperidine-1-carboxylic acid benzyl ester] | 0.24 µM
11 | CCOC(=O)N1CCC(n2ncc3c(Oc4ccc(S(C)(=O)=O)cc4)ncnc32)CC1 [Example 13, 4-[4-(4-Methanesulfonyl-phenoxy)-pyrazolo[3,4-d]pyrimidin-1-yl]-piperidine-1-carboxylic acid ethyl ester] | 0.65 µM
12 | CC(C)(C)OC(=O)N1CCC(n2ncc3c(Oc4ccc(S(N)(=O)=O)cc4)ncnc32)CC1 [Example 56, 4-[4-(4-Sulfamoyl-phenoxy)-pyrazolo[3,4-d]pyrimidin-1-yl]-piperidine-1-carboxylic acid tert-butyl ester] | 0.28 µM
13 | CC(OC(=O)N1CCC(n2ncc3c(Oc4ccc(S(C)(=O)=O)cc4)ncnc32)CC1)C(F)(F)F (stereo not drawn) [Example 110, 4-[4-(4-Methanesulfonyl-phenoxy)-pyrazolo[3,4-d]pyrimidin-1-yl]-piperidine-1-carboxylic acid 2,2,2-trifluoro-1-methyl-ethyl ester] | 1 µM
14 | CS(=O)(=O)c1ccc(Oc2ncnc3c2cnn3C2CCN(Cc3ccc(Cl)cc3)CC2)cc1 [Example 160, 1-[1-(4-Chloro-benzyl)-piperidin-4-yl]-4-(4-methanesulfonyl-phenoxy)-1H-pyrazolo[3,4-d]pyrimidine] | 0.57 µM
15 | CC(C)(C)OC(=O)N1CCC(n2ncc3c(Oc4ccc(C#N)cc4F)ncnc32)CC1 [Example 47, 4-[4-(4-Cyano-2-fluoro-phenoxy)-pyrazolo[3,4-d]pyrimidin-1-yl]-piperidine-1-carboxylic acid tert-butyl ester] | 0.28 µM
16 | CC(C)(C)OC(=O)N1CCC(n2ncc3c(Oc4cccc(F)c4)ncnc32)CC1 [Example 33, 4-[4-(3-Fluoro-phenoxy)-pyrazolo[3,4-d]pyrimidin-1-yl]-piperidine-1-carboxylic acid tert-butyl ester] | 0.6 µM
17 | CC[C@@H](C)OC(=O)N1CCC(n2ncc3c(Oc4ccc(S(C)(=O)=O)cc4)ncnc32)CC1 [Example 105, 4-[4-(4-Methanesulfonyl-phenoxy)-pyrazolo[3,4-d]pyrimidin-1-yl]-piperidine-1-carboxylic acid (R)-sec-butyl ester] | 0.15 µM
18 | Cc1nc(Oc2ccc(S(C)(=O)=O)cc2)c2cnn(C3CCN(C(=O)OC(C)(C)C)CC3)c2n1 [Example 175, 4-[4-(4-Methanesulfonyl-phenoxy)-6-methyl-pyrazolo[3,4-d]pyrimidin-1-yl]-piperidine-1-carboxylic acid tert-butyl ester] | 0.028 µM
19 | Cc1ncccc1Oc1ncnc2c1cnn2C1CCC(c2nc(C(C)C)no2)CC1 (stereo not drawn) [Example 135, 1-[4-(3-Isopropyl-[1,2,4]oxadiazol-5-yl)-cyclohexyl]-4-(2-methyl-pyridin-3-yloxy)-1H-pyrazolo[3,4-d]pyrimidine] | 0.92 µM
20 | CC(=O)Nc1ccc(Oc2ncnc3c2cnn3C2CCN(C(=O)OC(C)C)CC2)cc1 [Example 25, 4-[4-(4-Acetylamino-phenoxy)-pyrazolo[3,4-d]pyrimidin-1-yl]-piperidine-1-carboxylic acid isopropyl ester] | 0.46 µM
21 | Cn1nc(Oc2ncnc3c2cnn3C2CCN(C(=O)OC(C)(C)C)CC2)ccc1=O [Example 102, 4-[4-(1-Methyl-6-oxo-1,6-dihydro-pyridazin-3-yloxy)-pyrazolo[3,4-d]pyrimidin-1-yl]-piperidine-1-carboxylic acid tert-butyl ester] | 0.47 µM
22 | CCOc1ccc(Oc2ncnc3c2cnn3C2CCN(C(=O)OC(C)(C)C)CC2)cc1 [Example 40, 4-[4-(4-Ethoxy-phenoxy)-pyrazolo[3,4-d]pyrimidin-1-yl]-piperidine-1-carboxylic acid tert-butyl ester] | 0.2 µM
23 | Cc1nc(S(C)(=O)=O)ccc1Nc1ncnc2c1cnn2C1CCN(C(=O)OC(C)(C)C)CC1 [Example 8, 4-[4-(6-Methanesulfonyl-2-methyl-pyridin-3-ylamino)-pyrazolo[3,4-d]pyrimidin-1-yl]-piperidine-1-carboxylic acid tert-butyl ester] | 0.76 µM
24 | COc1ccccc1CN1CCC(n2ncc3c(Oc4ccc(S(C)(=O)=O)cc4)ncnc32)CC1 [Example 165, 4-(4-Methanesulfonyl-phenoxy)-1-[1-(2-methoxy-benzyl)-piperidin-4-yl]-1H-pyrazolo[3,4-d]pyrimidine] | 1.4 µM
25 | Cc1ncccc1Oc1ncnc2c1cnn2C1CCN(C(=O)OC(C)C)CC1 [Example 28, 4-[4-(2-Methyl-pyridin-3-yloxy)-pyrazolo[3,4-d]pyrimidin-1-yl]-piperidine-1-carboxylic acid isopropyl ester hydrochloride salt] | 0.82 µM
26 | CC(C)(C)OC(=O)N1CCC(n2ncc3c(Oc4ccc(Br)cc4C#N)ncnc32)CC1 [Example 52, 4-[4-(4-Bromo-2-cyano-phenoxy)-pyrazolo[3,4-d]pyrimidin-1-yl]-piperidine-1-carboxylic acid tert-butyl ester] | 0.75 µM
27 | CC(C)(C)OC(=O)N1CCC(n2ncc3c(Oc4cc(F)c(F)cc4C#N)ncnc32)CC1 [Example 50, 4-[4-(2-Cyano-4,5-difluoro-phenoxy)-pyrazolo[3,4-d]pyrimidin-1-yl]-piperidine-1-carboxylic acid tert-butyl ester] | 0.69 µM
